Source: article PMC10255489, “Targeting Anti-Inflammatory Pathways to Treat Diabetes-Induced Neuropathy by 6-Hydroxyflavanone” (Nutrients, 2023)

What was measured:
5-lipoxygenase (5-LOX) = biological target: T1, 5-lipoxygenase (5-LOX) (Homo sapiens, UniProt P09917); assay: UV ([…] nm) linoleic acid to HPOD assay, human recombinant 5-LOX; format: biochemical
T1 construct: gene ALOX5
T1 sequence (P09917 1-674): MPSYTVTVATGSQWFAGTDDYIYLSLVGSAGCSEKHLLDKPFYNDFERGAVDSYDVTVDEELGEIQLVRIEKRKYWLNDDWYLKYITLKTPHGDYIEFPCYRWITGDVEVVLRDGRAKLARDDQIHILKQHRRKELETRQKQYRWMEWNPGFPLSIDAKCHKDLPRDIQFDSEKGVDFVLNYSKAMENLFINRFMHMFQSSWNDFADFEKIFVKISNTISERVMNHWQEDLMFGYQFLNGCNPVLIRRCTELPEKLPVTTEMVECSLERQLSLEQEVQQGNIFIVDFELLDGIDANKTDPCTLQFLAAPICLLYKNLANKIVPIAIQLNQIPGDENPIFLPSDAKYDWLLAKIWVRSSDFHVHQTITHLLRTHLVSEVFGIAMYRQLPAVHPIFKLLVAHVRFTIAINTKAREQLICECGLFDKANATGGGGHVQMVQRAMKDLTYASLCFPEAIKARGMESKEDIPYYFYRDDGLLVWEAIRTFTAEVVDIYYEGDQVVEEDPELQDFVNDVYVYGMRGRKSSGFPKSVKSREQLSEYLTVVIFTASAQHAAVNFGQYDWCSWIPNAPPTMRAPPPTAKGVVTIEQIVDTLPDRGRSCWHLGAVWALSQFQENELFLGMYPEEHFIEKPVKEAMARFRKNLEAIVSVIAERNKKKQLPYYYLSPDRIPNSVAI

cyclooxygenase-2 (COX-2) = biological target: T2, cyclooxygenase-2 (COX-2) (Homo sapiens, UniProt P35354); assay: colorimetric COX inhibitor screening assay (Cayman […]), human recombinant COX-2
T2 construct: gene PTGS2
T2 sequence (P35354 18-604): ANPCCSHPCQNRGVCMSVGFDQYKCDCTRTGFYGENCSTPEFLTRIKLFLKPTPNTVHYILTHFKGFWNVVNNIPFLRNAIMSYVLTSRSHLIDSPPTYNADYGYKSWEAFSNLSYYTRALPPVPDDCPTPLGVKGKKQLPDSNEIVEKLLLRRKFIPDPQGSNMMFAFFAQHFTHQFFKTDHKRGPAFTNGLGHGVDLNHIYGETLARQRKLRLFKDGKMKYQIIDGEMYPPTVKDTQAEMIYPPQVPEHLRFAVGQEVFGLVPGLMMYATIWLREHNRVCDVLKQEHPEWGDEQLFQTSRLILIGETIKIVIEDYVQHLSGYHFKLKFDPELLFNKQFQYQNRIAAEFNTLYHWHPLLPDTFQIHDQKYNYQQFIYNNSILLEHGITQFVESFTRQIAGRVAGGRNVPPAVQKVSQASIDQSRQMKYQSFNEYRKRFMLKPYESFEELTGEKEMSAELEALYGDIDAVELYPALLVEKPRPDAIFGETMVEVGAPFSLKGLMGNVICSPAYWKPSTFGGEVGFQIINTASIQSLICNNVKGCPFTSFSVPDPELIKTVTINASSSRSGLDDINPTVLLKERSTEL

Q: `O=C1CC(c2ccccc2)Oc2ccc(O)cc21` (centres unmarked) [6-HF, 6-Hydroxyflavanone] was tested. Which IC50 (5-lipoxygenase (5-LOX)) did it give?
A: 36 µM

Q: What about the IC50 (cyclooxygenase-2 (COX-2)) of the same molecule?
A: 21.9 µM
